Measured values reported in patent US8853234B2, “Quinolone analogs and methods related thereto” (Senhwa Biosciences, Inc., priority 2007, dated 2014).
pIC50: −log10 of the molar value.

What was measured:
[1] = test system: HCT-116 human colorectal carcinoma cells; assay: Alamar Blue (AB) cell proliferation assay, HCT-116; assay type: cell-based; conditions: 96 h, Alamar Blue cell proliferation inhibition, HCT-116, four days
Description: A representative cell-proliferation assay protocol using Alamar Blue dye (stored at 4° C., use 20 ul per well) is described hereafter.
96-Well Plate Setup and Compound Treatment
a. Split and trypsinize cells.
b. Count cells using hemocytometer.
c. Plate 4,000-5,000 cells per well in 100 μl of medium and seed into a 96-well plate according to the following plate layout. Add cell culture medium only to wells B10 to B12. Wells B1 to B9 have cells but no compound added.
d. Add 100 μl of 2× drug dilution to each well in a concentration shown in the plate layout above. At the same time, add 100 μl of media into the control wells (wells B10 to B12). Total volume is 200 μl/well.
e. Incubate four (4) days at 37° C., 5% CO2 in a humidified incubator.
f. Add 20 μl Alamar Blue reagent to each well.
g. Incubate for four (4) hours at 37° C., 5% CO2 in a humidified incubator.
h. Record fluorescence at an excitation wavelength of 544 nm and emission wavelength of 590 nm using a microplate reader.
In the assays, cells are cultured with a test compound for approximately four days, the dye then is added to the cells and fluorescence of […] dye is detected after approximately four hours. Different types of cells can be utilized in the assays (e.g., HCT-116 human colorectal carcinoma cells, PC-3 human prostatic cancer cells and MiaPaca human pancreatic carcinoma cells). Anti-proliferative effects of representative compounds are provided hereafter.
Representative cassette dosing and bioavailability data are given in Table 8, along with cell proliferation inhibition (from Alamar Blue (AB) assay (e.g., Example 45 herein) and rRNA inhibition (from quantitative PCR (QPCR) assay (e.g., Example 46 herein).

rDNA = assay: Quantitative PCR (QPCR) assay, rRNA inhibition (rDNA); assay type: cell-based; set-up: Selectivity: reference not given here; conditions: for Selectivity: not defined in the patent; for pIC50: rRNA inhibition from quantitative PCR assay
Source text: In a specific assay embodiment, provided herein is a method for identifying a molecule that modulates ribosomal RNA (rRNA) synthesis, which comprises: contacting cells with a test molecule of Formula (I), (II), (III), (IV), (V), (VI), (VI′), (VII), or (VIII), contacting a ribosomal nucleotide sequence with one or more primers that amplify a portion thereof and a labeled probe that hybridizes to the amplification product, and detecting the amount of the amplification product by hybridization of the labeled probe, whereby a test molecule that reduces or increases the amount of amplification product is identified as a molecule that modulates rRNA synthesis. The labeled probe in some embodiments is added after the primers are added and the rRNA is amplified, and in certain embodiments, the labeled probe and the primers are added at the same time. The portion of ribosomal nucleotide sequence amplified sometimes is at the 5′ end of rDNA.
Real-time quantitative PCR (QPCR) method may be used to detect the changes of the target c-myc and the endogenous reference GAPDH gene copies in the same tube. Generally, cells (15,000 cells/well) are seeded on 96 well flat bottom plates (Corning, N.Y.) and incubated under normal growth conditions for overnight. The next day, the culture medium is exchanged for that containing anticancer drugs at various concentrations and incubated for 4 hrs in a humidified atmosphere of 5% CO2 at 37° C. Total RNA (tRNA) is extracted using the RNeasy 96 Kit (QIAGEN, CA). The concentration of the tRNA is determined by the RiboGreen RNA Quantitation Reagent (Molecular Probes, OR).
A reverse-transcription (RT) reaction may be conducted using 50 ng of tRNA from each well in a 25 μl reaction containing 1× TaqMan RT buffer, 2.5 uM random hexamers, 5.5 mM MgCl2, 0.5 mM each deoxynucleoside triphosphate (dNTP), 30 U MultiScribe Reverse Transcriptase, and 10 U RNase inhibitor. RT reactions are incubated for 10 min at 25° C., reverse-transcribed for 30 min at 48° C., inactivated for 5 min at 95° C., and placed at 4° C. All RT reagents may be purchased from Applied Biosystems, CA.
Real-Time QPCR reaction may be performed in a 50 μl reaction containing the 5 μl of cDNA, 1× Universal PCR Master Mix, 1× c-myc Pre-Developed Primers and Probe set, and 0.8×GAPDH Pre-Developed Primers and Probe set. Because of the relative abundance of GAPDH gene in Hela, GAPDH primers and probe concentration may be adjusted to get accurate threshold cycles (CT) for both genes in the same tube. The threshold cycle (CT) indicates the fractional cycle number at which the amount of amplified target reaches a fixed threshold. By doing so, the GAPDH amplification is stopped before it can limit the common reactants available for amplification of the c-myc. The ΔRn value represents the normalized reporter signal minus the baseline signal. ΔRn increases during PCR as amplicon copy number increases until the reaction approaches a plateau.
The c-myc probe is labeled with 6FAM™ dye-MGB and the GAPDH probe is labeled with VIC™ dye-MTB. Preincubation is performed for 2 min at 50° C. to activate AmpErase UNG enzyme and then for 10 min at 95° C. to activate AmpliTaq DNA Polymerase. DNA is amplified for 40 cycles of 15 sec at 95° C. and 1 min at 60° C. Human c-myc and GAPDH cDNA are amplified, detected, and quantitated in real time using the ABI Prism 7000 Sequence Detection system (Applied Biosystems, CA), which is set to detect both 6-FAM and VIC reporter dyes simultaneously.
The data may be analyzed using the ABI PRISM Sequence Detection System and Microsoft Excel. Relative quantitation is done using the standard curve and comparative CT method at the same time, and both methods gave equivalent results. The cycle at which the amplification plot crosses the CT is known to accurately reflect relative mRNA values. (See, Heid, et al., Genome Res. (1996) 6:986-994; Gibson, et al., Genome Res. (1996) 6:995-1001). […]

SMILES: CN1CCCCC1CNc1ccc2c(=O)c(C(=O)NCc3ccncc3)c3sc4ccccc4n3c2n1 (stereo not drawn)
- pIC50 [1]: 8.10
- Selectivity (rDNA): 39
- pIC50 (rDNA): 7.17

SMILES: CN1CCC(N(C)C(=O)c2c(=O)c3cc(F)c(N4CCOCC4)nc3n3c2sc2ccccc23)C1 (stereo not drawn)
- pIC50 [1]: 6.76
- Selectivity (rDNA): 5
- pIC50 (rDNA): 6.42

SMILES: O=C(NCCNC1CCC1)c1c(=O)c2ccc(N3CCOCC3)nc2n2c1sc1ccccc12
- pIC50 [1]: 6.54
- Selectivity (rDNA): 16
- pIC50 (rDNA): 6.75

SMILES: Cn1ccnc1CNC(=O)c1c(=O)c2cc(N3CCOCC3)nnc2n2c1sc1ccccc12
- pIC50 [1]: 6.76
- Selectivity (rDNA): 53
- pIC50 (rDNA): 6.48

SMILES: CN1CCN(c2ccc3c(=O)c(C(=O)NCc4ccccn4)c4sc5ccccc5n4c3n2)CC1
- pIC50 [1]: 6.83
- Selectivity (rDNA): 111
- pIC50 (rDNA): 6.95

SMILES: O=C(NCCNCC(F)(F)F)c1c(=O)c2ccc(N3CCOCC3)nc2n2c1sc1ccccc12
- pIC50 [1]: 6.27
- Selectivity (rDNA): 15
- pIC50 (rDNA): 6.30

SMILES: CN1CCCC1CCNC(=O)c1c(=O)c2cc(F)c(N3CCOCC3)nc2n2c3ccccc3n(C)c12 (stereo not drawn)
- pIC50 [1]: 6.68
- Selectivity (rDNA): 8
- pIC50 (rDNA): 6.28

SMILES: CN1CCN(c2nc3c(cc2F)c(=O)c(C(=O)NCc2cn(C)cn2)c2sc4ccccc4n23)CC1
- pIC50 [1]: 6.52
- Selectivity (rDNA): 69
- pIC50 (rDNA): 6.86

SMILES: CN1CCCC(NC(=O)c2c(=O)c3cc(F)c(N4CCOCC4)nc3n3c2sc2ccccc23)C1 (stereo not drawn)
- pIC50 [1]: 7.57
- Selectivity (rDNA): 862
- pIC50 (rDNA): 7.54

SMILES: CN1CCCC1CNC(=O)c1c(=O)c2cc(F)c(N3CCOCC3)nc2n2c1sc1ccccc12 (stereo not drawn)
- pIC50 [1]: 6.89
- Selectivity (rDNA): 45
- pIC50 (rDNA): 6.42

SMILES: O=C(NCCNCCF)c1c(=O)c2cc(F)c(N3CCOCC3)nc2n2c1sc1ccccc12
- pIC50 [1]: 6.32
- Selectivity (rDNA): 70
- pIC50 (rDNA): 6.83

SMILES: Cc1nccn1CCNC(=O)c1c(=O)c2ccc(N3CCOCC3)nc2n2c1sc1ccccc12
- pIC50 [1]: 6.78
- Selectivity (rDNA): 21
- pIC50 (rDNA): 7.08

SMILES: O=C(c1c(=O)c2ccc(N3CCOCC3)nc2n2c1sc1ccccc12)N1CCN(c2ccccn2)CC1
- pIC50 [1]: 6.68
- Selectivity (rDNA): 17
- pIC50 (rDNA): 6.14

SMILES: O=C(NCCN1CCCC1)c1c(=O)c2ccc(N3CCOCC3)nc2n2c1sc1ccccc12
- pIC50 [1]: 7.23
- Selectivity (rDNA): 162
- pIC50 (rDNA): 7.28

SMILES: O=C(NCCNC1CC1)c1c(=O)c2ccc(N3CCOCC3)nc2n2c1sc1ccccc12 [drawing 604]
- pIC50 [1]: 7.19
- Selectivity (rDNA): 39
- pIC50 (rDNA): 7.00

SMILES: O=C(NCCN1CC=CC1)c1c(=O)c2ccc(N3CCOCC3)nc2n2c1sc1ccccc12
- pIC50 [1]: 6.89
- Selectivity (rDNA): 22
- pIC50 (rDNA): 7.19

SMILES: CN1CCCC1CCNC(=O)c1c(=O)c2ccc(N3CCOCC3)nc2n2c1sc1ccccc12 (stereo not drawn)
- pIC50 [1]: 7.26
- Selectivity (rDNA): 42
- pIC50 (rDNA): 6.60

SMILES: CN1CCCC1CCNC(=O)c1cn2c3c(c(N4CCOCC4)c(F)cc3c1=O)Oc1ccccc1-2 (stereo not drawn)
- pIC50 [1]: 6.41
- Selectivity (rDNA): 12
- pIC50 (rDNA): 6.39

SMILES: O=C(NCCNC1CC1)c1c(=O)c2cc(F)c(N3CCOCC3)nc2n2c1sc1ccccc12
- pIC50 [1]: 6.88
- Selectivity (rDNA): 53
- pIC50 (rDNA): 6.61

SMILES: O=C(NCCNCCF)c1c(=O)c2ccc(N3CCOCC3)nc2n2c1sc1ccccc12
- pIC50 [1]: 6.87
- Selectivity (rDNA): 48
- pIC50 (rDNA): 7.23

SMILES: CN1CCCCC1CNC(=O)c1c(=O)c2ccc(N3CCOCC3)nc2n2c1sc1ccccc12 (stereo not drawn)
- pIC50 [1]: 8.22
- Selectivity (rDNA): 2778
- pIC50 (rDNA): 8.05

SMILES: CN1CCCC1CCNC(=O)c1c(=O)c2cc(F)c(N3CCOCC3)nc2n2c1sc1ccccc12 (stereo not drawn)
- pIC50 [1]: 6.47
- Selectivity (rDNA): 10
- pIC50 (rDNA): 6.05

SMILES: O=C(NNC1=NCCN1)c1c(=O)c2cc(F)c(N3CCOCC3)nc2n2c1sc1ccccc12
- pIC50 [1]: 9.00
- Selectivity (rDNA): 893
- pIC50 (rDNA): 7.55

SMILES: O=C(NCCN1CCC(O)C1)c1c(=O)c2cc(F)c(N3CCOCC3)nc2n2c1sc1ccccc12 (stereo not drawn)
- pIC50 [1]: 7.26
- Selectivity (rDNA): 10
- pIC50 (rDNA): 8.00

SMILES: O=C(NCCN1CCOCC1)c1c(=O)c2ccc(N3CCOCC3)nc2n2c1sc1ccccc12
- pIC50 [1]: 6.34
- Selectivity (rDNA): 16
- pIC50 (rDNA): 6.30

SMILES: Cn1ccnc1CNC(=O)c1c(=O)c2ccc(N3CCOCC3)nc2n2c1sc1ccccc12
- pIC50 [1]: 6.84
- Selectivity (rDNA): 9
- pIC50 (rDNA): 6.76

SMILES: Cn1ccnc1CNC(=O)c1c(=O)c2cc(F)c(N3CCOCC3)nc2n2c1sc1ccccc12
- pIC50 [1]: 6.70
- Selectivity (rDNA): 11
- pIC50 (rDNA): 6.87

SMILES: CN1CCCN(C(=O)c2c(=O)c3cc(F)c(N4CCOCC4)nc3n3c2sc2ccccc23)CC1
- pIC50 [1]: 6.52
- Selectivity (rDNA): 10
- pIC50 (rDNA): 6.63

SMILES: Cc1cnc(CNC(=O)c2c(=O)c3ccc(N4CCN(C)CC4)nc3n3c2sc2ccccc23)cn1 [drawing 619]
- pIC50 [1]: 6.41
- Selectivity (rDNA): 13
- pIC50 (rDNA): 7.16

SMILES: O=C(NCC1CCCN1)c1c(=O)c2cc(F)c(N3CCOCC3)nc2n2c1sc1ccccc12 (stereo not drawn)
- pIC50 [1]: 8.05
- Selectivity (rDNA): 25
- pIC50 (rDNA): 7.80

SMILES: O=C(NCCN1CC=CCC1)c1c(=O)c2ccc(N3CCOCC3)nc2n2c1sc1ccccc12
- pIC50 [1]: 7.01
- Selectivity (rDNA): 64
- pIC50 (rDNA): 7.49
